Reference: patent US10766863B2, “Monocarboxylate transport modulators and uses thereof” (NIROGYONE THERAPEUTICS, INC., priority 2014, dated 2020)

These compounds were tested on panel of solid and haemotological tumor cell lines (assay: MTS or MTT cell proliferation assay (cytotoxicity of MCT inhibition)). Conditions: Homo sapiens; MTS or MTT readout, 72 hours post-dosing; growth medium or 10 mM lactate medium (SiHa); cell line not given.
Assay type: cell-based
Method: MTS or MTT Cell Proliferation Assay
The anti-proliferation effect of MCT inhibition was investigated across a panel of solid and haemotological tumor cell lines. Cells were routinely cultured in their appropriate growth medium. On day 1, between 5,000 -10,000 cells/well were plated into 96-well plates. 100 μL of phosphate buffered saline solution was added to the external wells to prevent media evaporation. Plates were incubated overnight at 37° C. in the presence of 5% CO2. On day 2, dry weight compound stocks were dissolved to a concentration of 20 mM in 100% DMSO. Compounds were further diluted in either growth medium or 10 mM lactate medium (For SiHa cell lines; Basic DMEM, 10% FBS, 10 mM Na-Lactate, 2.2 g/L NaHCO3, no glutamine) to generate a final dose range of 10 nM to 100 μM. Plates were then incubated at 37° C. in the presence of 5% CO2 for a further 72 hours post-dosing. On day 5, 20 μL of CellTiter 96 AQ MTS reagent or MTT was added to each well and the plate was returned to the incubator for 2-4 hours. In case of lactate medium, the medium was replaced by 100 μL of growth medium and 20 μL of CellTiter 96 AQ MTS reagent or replaced the media in cells with 100 uL of growth media containing 10% MTT solution,. MTS or MTT is bioreduced by NADPH or NADH produced by dehydrogenase enzymes in metabolically active cells into a coloured formazan product that is soluble in tissue culture medium. The amount of coloured formazan product is directly proportional to the number of living cells in culture. In the case of MTT, after 4 hr incubation, the media was removed from the plates and the plate was air-dried. Then, 100 uL of DMSO was added to each well, and incubated for 30 mins at room temperature with mild shaking. The absorbance of the plates was read on a Synergy H4 plate reader using […] or 540 nm measurement wavelength. Dose response curves were plotted and IC50 values were calculated using Prism. The IC50 value is equivalent to the concentration of compound that causes 50% inhibition of growth calculated from the compound treated signal to the vehicle treated signal.

Row | Structure (SMILES) | EC50 [nM]
1 | CCn1cc(C(=O)O)c(=O)c2cc(F)c(N(C)Cc3ccccc3)cc21 [Example 6, 7-(benzyl(methyl)amino)-1-ethyl-6-fluoro-4-oxo-1,4-dihydroquinoline-3-carboxylic acid] | < 1000
2 | COc1cccc(CN(C)c2cc3c(cc2F)c(=O)c(C(=O)O)cn3CC(C)C)c1 [Example 8, 6-fluoro-1-isobutyl-7-((3-methoxybenzyl) (methyl)amino)-4-oxo-1,4-dihydroquinoline-3-carboxylic acid] | < 1000
3 | Cc1cc(C)n(Cc2cc3c(cc2C(=O)N2CCC2)c(=O)c(C(=O)O)cn3CC(C)C)n1 [Example 15, 6-(azetidine-1-carbonyl)-7-((3,5-dimethyl-1H-pyrazol-1-yl)methyl)-1-isobutyl-4-oxo-1,4-dihydroquinoline-3-carboxylic acid] | < 1000
4 | CC(C)Cn1cc(C(=O)O)c(=O)c2cc(F)c(N(C)Cc3ccccc3)cc21 [Example 1, 7-(benzyl(methyl)amino)-6-fluoro-1-isobutyl-4-oxo-1,4-dihydroquinoline-3-carboxylic acid] | < 1000
5 | CC(C)Cn1cc(C(=O)O)c(=O)c2cc(F)c(N(C)Cc3cccs3)cc21 [Example 10, 6-fluoro-1-isobutyl-7-(methyl(thiophen-2-ylmethyl)amino)-4-oxo-1,4-dihydro-quinoline-3-carboxylic acid] | < 1000
6 | COc1cccc(CN(C)c2cc3c(cc2F)c(=O)c(C(=O)O)cn3Cc2ccccc2)c1 [Example 12, 1-benzy1-6-fluoro-7-((3-methoxybenzyl) (methyl)amino)-4-oxo-1,4-dihydroquinoline-3-carboxylic acid] | < 1000
7 | CC(C)Cn1cc(C(=O)O)c(=O)c2cc(F)c(N(C)Cc3ccc(Cl)cc3)cc21 [Example 4, 7-((4-chlorobenzyl) (methyl)amino)-6-fluoro-1-isobutyl-4-oxo-1,4-dihydro-quinoline-3-carboxylic acid] | < 1000
8 | CC(C)Cn1cc(C(=O)O)c(=O)c2cc(F)c(N(C)Cc3cccc(F)c3)cc21 [Example 7, 6-fluoro-7-((3-fluorobenzyl)(methyl)amino)-1-isobutyl-4-oxo-1,4-dihydro-quinoline-3-carboxylic acid] | < 1000
9 | CC(C)Cn1cc(C(=O)O)c(=O)c2cc(F)c(NCc3cccc(C(F)(F)F)c3)cc21 [Example 5, 6-fluoro-1-isobutyl-4-oxo-7-((3-(trifluoro-methyl)benzyl)amino)-1,4-dihydroquinoline-3-carboxylic acid] | < 1000
10 | CC(C)n1cc(C(=O)O)c(=O)c2cc(F)c(N(C)Cc3ccccc3)cc21 [Example 17, 7-(benzyl(methyl)amino)-6-fluoro-1-isopropyl-4-oxo-1,4-dihydro-quinoline-3-carboxylic acid] | < 1000
11 | CC(C)Cn1cc(C(=O)O)c(=O)c2cc(F)c(N(C)CC3CCN(C)CC3)cc21 [Example 9, 6-fluoro-1-isobutyl-7-(methyl((1-methyl-piperidin-4-yl)methyl)amino)-4-oxo-1,4-dihydroquinoline-3-carboxylic acid] | < 1000
12 | CC(C)n1cc(C(=O)O)c(=O)c2cc(F)c(N(C)Cc3cccnc3)cc21 [Example 16, 6-fluoro-1-isopropyl-7-(methyl(pyridin-3-ylmethyl)amino)-4-oxo-1,4-dihydro-quinoline-3-carboxylic acid] | < 1000
13 | CC(C)Cn1cc(C(=O)O)c(=O)c2cc(F)c(N(C)Cc3cccc(C(F)(F)F)c3)cc21 [Example 3, 6-fluoro-1-isobutyl-7-(methyl(3-(trifluoro-methyl)benzyl)amino)-4-oxo-1,4-dihydroquinoline-3-carboxylic acid] | < 1000
14 | CC(C)n1cc(C(=O)O)c(=O)c2cc(F)c(N(C)Cc3ccc(F)cc3)cc21 [Example 18, 6-fluoro-7-((4-fluorobenzyl)(methyl)amino)-1-isopropyl-4-oxo-1,4-dihydro-quinoline-3-carboxylic acid] | < 1000
15 | CC(C)Cn1cc(C(=O)O)c(=O)c2cc(F)c(N(C)C(=O)c3ccccc3)cc21 [Example 11, 6-fluoro-1-isobutyl-7-(N-methylbenzamido)-4-oxo-1,4-dihydro-quinoline-3-carboxylic acid] | < 1000

Each compound was assayed on monocarboxylate transporters (assay: Lactate consumption assay in tumor cell lines (enzymatic L-Lactate Kit II)). Conditions: tumor cells in 10 mM lactate medium, compound 24 hours; concentration not given.
Assay type: cell-based
Method: Lactate Consumption Assay in Tumor Cell Lines.
Cells are maintained in their appropriate growth medium (DMEM medium with 4.5 g/L glucose, 4 mM L-glutamine supplemented with 10% FBS and P/S (growth medium). Cells (500,000 cells/well) were seeded in 24-well plate in growth medium for 6 hours. Replace the growth medium with 1 mL lactate medium (10 mM lactate in base DMEM without sodium pyruvate) for overnight. Cells were treated with compounds in 1 mL lactate medium for 24 hours. The culture medium was collected and centrifuged at 12,000 rpm for 5 minutes at 4° C. to get rid of any cell debris. An aliquot of 0.5 mL of the supernatant was loaded to a deproteinizing column, centrifuged at 12,000 rpm for 15 minutes at 4° C. The flow-through was collected and stored at -80° C. for future analysis. The amount of lactate in the supernatant was analyzed by enzymatic L-Lactate Kit II (Eton Bioscience Inc.). Briefly, 50 μL of 10 times diluted sample was mixed with 50 μL reaction mixture. Lactic acid is oxidized by enzyme reactions to yield color product, which can be measured in dual modes, either at 570 nm for colorimetric assay or with Ex 530-560/Em 570-595 nm fluorescence assay. And the color or fluorescence intensity is proportional to lactic acid concentrations, therefore the sample lactic acid concentration can be accurately calculated based on the lactic acid standards. […]

Row | Structure (SMILES) | Lactate Consumption [Lactate Kit] (%)/[IC50] [%]
16 | CC(C)Cn1cc(C(=O)O)c(=O)c2cc(F)c(N(C)Cc3ccccc3)cc21 [Example 1, 7-(benzyl(methyl)amino)-6-fluoro-1-isobutyl-4-oxo-1,4-dihydroquinoline-3-carboxylic acid] | 86

These compounds were tested on monocarboxylate transporters (assay: Lactate uptake by 14C-lactate labeling assay). Conditions: SiHa cells, compound one hour, 2 μM 14C-lactate for 12 minutes; read-out: Lactate Consumption (%)/[IC50][14C labeled].
Assay type: cell-based
Method: Measuring Lactate Uptake by ^14 C-lactate Labeling Assay.
The inhibition of monocarboxylate transporters of the invention was determined using ^14CLactate, and the data are shown in Table II. Cells are maintained in their appropriate growth medium (DMEM medium with 4.5 g/L glucose, 4 mM L-glutamine supplemented with 10% FBS and P/S (growth medium). Cell culture surface of 24-well cell culture plates (BD Bioscience) were aseptically coated with 80 μL poly-lysine (1 mg/mL, Sigma) for 5 mins, then rinsed with sterile cell culture grade water, air-dried for at least 2 hours before introducing cells and medium. SiHa cells were seeded in poly-lysine coated 24-well plate at 500,000 cells/well in growth medium for 6 hours. Replace the growth medium with 1 mL lactate medium (10 mM lactate in base DMEM without sodium pyruvate) for overnight. Cells were rinsed with modified Kreb solution (containing 10 μM L-lactate, without glucose) and then treated with vehicle or increasing concentrations of compounds (0.1, 1, 10, 100 μM) at 37° C. in 1 mL modified Kreb solution (containing 10 μM L-lactate, 0.25% BSA) for one hour. […] After one hour agitation, the radioactivity was measured using Microbeta TriLux. CPM value was recorded and normalized to protein concentration.

Row | Structure (SMILES) | IC50 [nM]
17 | CC(C)Cn1cc(C(=O)O)c(=O)c2cc(F)c(N(C)Cc3ccccc3)cc21 [Example 1, 7-(benzyl(methyl)amino)-6-fluoro-1-isobutyl-4-oxo-1,4-dihydroquinoline-3-carboxylic acid] | < 1000
